Measurements taken from ChEMBL document CHEMBL1140205, “Discovery and development of fatty acid amide hydrolase (FAAH) inhibitors” (J Med Chem, 2008).

Columns and labels:
Rattus norvegicus = species on record: Rattus norvegicus; assay: Ex vivo inhibition of FAAH activity in rat brain after 16 hrs; format: functional
[1] = target: T1, Fatty-acid amide hydrolase 1 (Rattus norvegicus, UniProt P97612)
T1 sequence (P97612 whole entry): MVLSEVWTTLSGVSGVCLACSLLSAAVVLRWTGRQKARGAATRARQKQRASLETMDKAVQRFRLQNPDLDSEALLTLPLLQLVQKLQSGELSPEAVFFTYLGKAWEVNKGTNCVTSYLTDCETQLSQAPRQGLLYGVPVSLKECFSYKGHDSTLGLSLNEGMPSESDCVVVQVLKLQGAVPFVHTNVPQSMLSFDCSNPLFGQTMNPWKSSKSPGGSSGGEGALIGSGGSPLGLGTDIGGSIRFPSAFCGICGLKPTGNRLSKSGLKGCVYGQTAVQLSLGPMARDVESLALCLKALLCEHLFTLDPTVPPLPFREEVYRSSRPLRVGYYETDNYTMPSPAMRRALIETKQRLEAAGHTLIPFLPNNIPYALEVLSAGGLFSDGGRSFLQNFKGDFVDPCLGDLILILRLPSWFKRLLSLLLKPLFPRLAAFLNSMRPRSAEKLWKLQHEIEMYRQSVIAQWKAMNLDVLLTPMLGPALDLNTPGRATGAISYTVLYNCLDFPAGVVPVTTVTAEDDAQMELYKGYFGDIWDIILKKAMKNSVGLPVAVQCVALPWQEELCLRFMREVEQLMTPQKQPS

[2] = substrate: CCCCCCCC/C=C\CCCCCCCC(N)=O; assay: Activity of FAAH

In the case of NC(=O)c1cccc(-c2cccc(OC(=O)NC3CCCCC3)c2)c1 [URB-597], the “inhibition (INH)” value (Rattus norvegicus) is reported as 90%.

O=C1O/C(=C/Br)CCC1c1cccc2ccccc12 (stereo not drawn) [BROMOENOL LACTONE] gave an IC50 [1] of 800 nM.

B1: Fatty-acid amide hydrolase 1 (Homo sapiens), O00519 (protein)
chain: MVQYELWAALPGASGVALACCFVAAAVALRWSGRRTARGAVVRARQRQRAGLENMDRAAQRFRLQNPDLDSEALLALPLPQLVQKLHSRELAPEAVLFTYVGKAWEVNKGTNCVTSYLADCETQLSQAPRQGLLYGVPVSLKECFTYKGQDSTLGLSLNEGVPAECDSVVVHVLKLQGAVPFVHTNVPQSMFSYDCSNPLFGQTVNPWKSSKSPGGSSGGEGALIGSGGSPLGLGTDIGGSIRFPSSFCGICGLKPTGNRLSKSGLKGCVYGQEAVRLSVGPMARDVESLALCLRALLCEDMFRLDPTVPPLPFREEVYTSSQPLRVGYYETDNYTMPSPAMRRAVLETKQSLEAAGHTLVPFLPSNIPHALETLSTGGLFSDGGHTFLQNFKGDFVDPCLGDLVSILKLPQWLKGLLAFLVKPLLPRLSAFLSNMKSRSAGKLWELQHEIEVYRKTVIAQWRALDLDVVLTPMLAPALDLNAPGRATGAVSYTMLYNCLDFPAGVVPVTTVTAEDEAQMEHYRGYFGDIWDKMLQKGMKKSVGLPVAVQCVALPWQEELCLRFMREVERLMTPEKQSS
B1 was tested, and the Km [2] was 5 µM.
